Measurements published in patent US20220305079A1, “THERAPEUTIC PEPTIDES” (COHBAR, INC., priority 2019, published 2022).
Square brackets hold non-standard residues; d marks the D form. Ends that are not written are not given here.

Assays:
Mouse 3T3-L1 adipocytes = test: Free Fatty Acid Levels in 3T3-L1 Adipocytes; conditions: for Free Fatty Acid Levels in 3T3-L1 Adipocytes Expressed as a Percent Isoproterenol Control, Percent of Control Activity: test peptides 25 μM, 20-22 hours then isoproterenol (1 nM) 3 hours
Procedure: Mouse 3T3-L1 adipocytes were seeded at 3,000 cells per well in 96-well plates in Pre-adipocyte Medium (Zen-Bio, Durham, N.C.) and grown to confluence at 37° C. in a humidified atmosphere of 5% CO2/95% air. Two days after confluence, cells were placed in Adipocyte Differentiation Medium (Zen-Bio, Durham, N.C.) and cultured for three additional days at 37° C. in a humidified atmosphere of 5% CO2/95% air. The culture media was then replaced with Adipocyte Maintenance Medium (Zen-Bio) and the cells maintained for an additional 9-12 days at 37° C. in a humidified atmosphere of 5% CO2/95% air with partial medium replacement every other day. Following 12-15 days' differentiation, test peptides were added to a final concentration of 25 μM and incubated for 20-22 hours in Adipocyte Maintenance Medium. After 20-22 hours, isoproterenol (1 nM) was added to all wells except untreated controls and test peptides were replenished. Cells were incubated for a further 3 hours in Assay Buffer (Zen-Bio). Free fatty acid concentrations in the media were determined using a Free Fatty Acid Assay Kit (Zen-Bio) according to the manufacturer's instructions using a plate reader (540 nm). Absorbance values were corrected for untreated background and expressed relative to isoproterenol treated cells. Treatment with isoproterenol (1 nM) alone was used as the free fatty acid level stimulatory control. The relative standard deviation of the isoproterenol control was <10%.

[1] = test system: MCF-7 human breast cancer cell line; test: MTS Assay in MCF-7 Cells (cell viability); conditions: test peptides at 10 μM, 72 hours, relative to DMSO control
Procedure: (§1) Peptides and reference compound staurosporine (Selleckchem) were dissolved with DMSO at 10 mM stock. CellTiter 96® AQueous One Solution Reagent (MTS assay reagent) was purchased from Promega (Madison, Wis.). MCF-7 human breast cancer cell line was purchased from American Type Culture Collection (Manassas, Va.). MCF-7 cells were grown in EMEM Medium supplemented with 10% FBS and 0.01 mg/ml human recombinant insulin. 100 μg/ml penicillin and 100 μg/ml streptomycin were added to the culture medium. […] 5 μl of CellTiter 96® AQueous One Solution Reagent (MTS assay reagent) was added to each well and incubated at 37° C., 5% CO2 for 5 hours. Absorbance at 492 nm was recorded by Envision 2104 Multilabel Reader. Treatment with DMSO alone was used as the cell viability activity control.

[2] = test system: MDA-MB-231 human breast cancer cell line; test: MTS Assay in MDA-MB-231 Cells (cell viability); type: cell-based; conditions: 72 hours, relative to DMSO control; test concentration not given
Procedure: (§2) Test compounds and reference compound staurosporine (Selleckchem) were all dissolved with DMSO at 10 mM stock. […] Activity was calculated relative to DMSO control. […] Cell viability was 3% of the DMSO control value for Staurosporine (10 uM).

[3] = test system: MDA-MB-231 human breast cancer cell line; test: Caspase 3/7 Activity in MDA-MB-231 Cells (Caspase-Glo 3/7 Assay); type: cell-based; conditions: test peptides at 10 μM, 18 hours, relative to DMSO control
Procedure: The effect of the peptides on cell death/survival can be assessed using a caspase-3 assay. Peptides were dissolved with DMSO at 10 mM stock. […] Staurosporine (Selleckchem) was dissolved with DMSO at 1 mM stock. Caspase-Glo 3/7 Assay Reagent was purchased from Promega (Madison, Wis.). MDA-MB-231 human breast cancer cell line was purchased from American Type Culture Collection (Manassas, Va.). MDA-MB-231 cells were grown in DMEM Medium supplemented with 10% FBS. 100 μg/ml penicillin and 100 μg/ml streptomycin were added to the culture medium. […] 25 μl of Caspase-Glo 3/7 Assay Reagent was added to each well and incubated at 37° C., 5% CO2 for 1 hour. Luminescence for each sample well on the plate was measured by Envision 2104 Multilabel Reader (PerkinElmer, Santa Clara, Calif.). Activity was calculated relative to DMSO control.

[4] = MTS Assay in MCF-7 Cells (cell viability); conditions: human
Procedure: as §1

[5] = MTS Assay in MDA-MB-231 Cells (cell viability); type: cell-based, human; conditions: human; Staurosporine 10 uM, positive control, MDA-MB-231 cells; read-out: Cell viability, % of the DMSO control value
Procedure: as §2

Molecule | Free Fatty Acid Levels in 3T3-L1 Adipocytes Expressed as a Percent Isoproterenol Control, Percent of Control Activity (Mouse 3T3-L1 adipocytes) [%] | also measured
25 ([dA]WLRLSGSKVEWV) [compound 25] | 93 | –
8 (WFDYFCMSPSIDEGLTLLV) [compound 8] | 45 | –
5 (HQSH[dA]YHIVKPSP) [compound 5] | 111 | –
14 (VKGDSKYSEACRRV) [compound 14] | 112 | –
20 (LFFRSSKLQYGRLFRSA) [compound 20] | 73 | –
19 (VLFFRSSKLQYGRLFRSLA) [compound 19] | 95 | –
24 (VWLRLSGSKVEWVW; not fully specified) [compound 24] | 81 | –
12 (MVKGDSKYSEACRRVK) [compound 12] | 135 | MTS Assay in MCF-7 Cells, Percent of Control Activity [1]: 50%; MTS Assay in MDA-MB-231 Cells, Percent of Control Activity [2]: 80%; Caspase 3/7 Activity in MDA-MB-231 Cells, Percent of Control Activity [3]: 52%
18 (VLFFRSSKLQYGRLFRSLVG) [compound 18] | 84 | –
CN[C@@H]1C[C@H]2O[C@@](C)([C@@H]1OC)n1c3ccccc3c3c4c(c5c6ccccc6n2c5c31)C(=O)NC4 [staurosporine, reference compound] | – | viability at 72 h, 10 µM [4]: < 5%; viability at 72 h, 10 µM [5]: 3%
23 (VWLRLSGSKVEWVWG) [compound 23] | 71 | –
2 (MTHQSHAYHIVKPSP) [compound 2] | 95 | MTS Assay in MCF-7 Cells, Percent of Control Activity [1]: 71%; MTS Assay in MDA-MB-231 Cells, Percent of Control Activity [2]: 85%; Caspase 3/7 Activity in MDA-MB-231 Cells, Percent of Control Activity [3]: 51%
22 (MVWLRLSGSKVEWVWG) [compound 22] | 93 | MTS Assay in MCF-7 Cells, Percent of Control Activity [1]: 47%; MTS Assay in MDA-MB-231 Cells, Percent of Control Activity [2]: 75%; Caspase 3/7 Activity in MDA-MB-231 Cells, Percent of Control Activity [3]: 31%
9 (WFDYFCMSPSIDEGLTL) [compound 9] | 35 | –
17 (MVLFFRSSKLQYGRLFRSLVG) [compound 17] | 75 | MTS Assay in MCF-7 Cells, Percent of Control Activity [1]: 40%; MTS Assay in MDA-MB-231 Cells, Percent of Control Activity [2]: 75%; Caspase 3/7 Activity in MDA-MB-231 Cells, Percent of Control Activity [3]: 43%
insulin [reference compound] | – | Free fatty acid levels, % of the isoproterenol control value (Mouse 3T3-L1 adipocytes; insulin 100 nM, positive control): < 5%
13 (VKGDSKYSEACRRVK) [compound 13] | 113 | –
3 (THQSHAYHIVKPSP; not fully specified) [compound 3] | 118 | –
4 (THQSH[dA]YHIVKPSP) [compound 4] | 134 | –
15 (VKGDSKYSEACR) [compound 15] | 128 | –
7 (MWFDYFCMSPSIDEGLTLLV) [compound 7] | 104 | MTS Assay in MCF-7 Cells, Percent of Control Activity [1]: 63%; MTS Assay in MDA-MB-231 Cells, Percent of Control Activity [2]: 81%; Caspase 3/7 Activity in MDA-MB-231 Cells, Percent of Control Activity [3]: 29%
10 (WFDYFAMSPSADEGLTL) [compound 10] | 55 | –
